{
  "source": "patent US11078222B2",
  "about": "“Hydroxybenzoic acid derivatives, methods and uses thereof” (UNiVERSIDADE DO PORTO, priority 2016, dated 2021)",
  "key": {"[1]": {"test": "GO radical scavenging activity", "format": "biochemical", "conditions": "ethanol, 428 nm, 30 min", "procedure": "The selected total antioxidant capacity (TAC) assays (DPPH, ABTS and GO) involved the spectrophotometric measurement of the radical absorbance decrease as a result of an in situ radical deactivation by an antioxidant.\nThe radical scavenging activity of AntiOxClNs was evaluated by means of total antioxidant capacity assays based on DPPH., ABTS.^+ and GO. radicals. All these methods involved the spectrophotometric measurement of the absorbance decrease resulting from radical (DPPH., ABTS.^+ or GO.) deactivation with an antioxidant. The results were expressed in IC50, which is defined as the minimum antioxidant concentration necessary to reduce the amount of radical by 50%. Antioxidant assays were performed in a multiplate reader (Powerwave XS Microplate Reader) from Bio Tech instruments.\nIn an embodiment, the GO. scavenging activity was evaluated as follows: solutions of test compounds with concentrations from 10 μM to 100 μM were prepared in ethanol. An ethanolic solution of 5 mM GO. was prepared and diluted to reach the absorbance of 1.00±0.02 at 428 nm. The addition (20 μL) in triplicate of compound solution to GO. solution (180 μL) was followed by absorbance measurement at 428 nm over 30 minutes, in the dark, at room temperature. […] Dose-response curves were established for the determination of IC50 values."}, "[2]": {"test": "Redox potential by differential pulse and cyclic voltammetry, glassy carbon electrode", "format": "physicochemical", "conditions": "physiological pH 7.4", "experimental": "In an embodiment, the oxidative behaviour of the parent antioxidants (protocatechuic and gallic acids) and AntiOxBENs was evaluated at physiological pH 7.4, by differential pulse and cyclic voltammetry, using a glassy carbon working electrode. […] For pyrogallol derivatives (gallic acid, AntiOxBEN2, AntiOxBEN3), a significant decrease in redox potentials was observed (Ep=0.163-0.168 V) (Table 1).\nIn an embodiment, the electrochemical analytical data was obtained using a computer controlled potentiostat Autolab PGSTAT302N (Metrohm Autolab, Utrecht, Netherlands). Generally, cyclic voltammetry (CV) data was acquired at a scan rate of 50 mVs^−1. Differential pulse voltammetry (DPV) results were acquired at a step potential of 4 mV, pulse amplitude of 50 mV and scan rate of 8 mVs^−1. The electrochemical signals were monitored by the General Purpose Electrochemical System (GPES) version 4.9, software package. All electrochemical experiments were performed at room temperature in an electrochemical cell that was placed in a Faraday cage in order to minimize the contribution of background noise to the analytical signal.\nIn an embodiment, the process of evaluation of AntiOxBENs redox properties was conducted as follows: stock solutions of each compound (10 mM) were prepared by dissolving the appropriate amount in ethanol. The voltammetric working solutions were prepared in the electrochemical cell, at a final concentration of 0.1 mM. The […] supporting electrolyte was prepared by diluting 6.2 mL of 0.2 M dipotassium hydrogen phosphate and 43.8 mL of 0.2 M potassium dihydrogen phosphate to 100 mL. Voltammetric data was acquired in a three-electrode system consisting of a glassy carbon electrode (GCE, d=2 mm) as working electrode, a counter electrode of platinum wire and a saturated Ag/AgCl reference electrode. In an embodiment, the evaluation of AntiOxBENs lipophilic properties was performed as follows: the electrochemical cell was a four-electrode system with arrays of micro liquid-liquid interfaces (μITIES) containing two Ag/AgCl reference electrodes and two counter electrodes of Pt, one in each phase. The microporous membrane was sealed with a fluorosilicone sealant (Dow Corning 730) onto a glass cylinder which was filled with 4.0 mL of the aqueous phase, where the aliquots of AntiOxBENs solutions were added. The membrane was then immersed into the organic phase contained in the cell. The organic phase reference solution (a 2 mM BTPPACI+2 mM NaCl aqueous solution) was mechanically stabilized The aqueous supporting electrolyte solution was a Tris-HCl buffer 10 mM pH 7.0."}, "[3]": {"system": "rat liver mitochondria (RLM)", "test": "Mitochondrial respiration of isolated RLM (Clark-type oxygen electrode): RCR, ADP/O", "format": "biochemical", "conditions": "RLM", "experimental": "In an embodiment, and as an example, the toxicity effects of some AntiOxBENs and MitoQ on the mitochondrial bioenergetics, namely on RLM Δψ and respiration parameters, were measured. The Δψ represents the main component of the electrochemical gradient generated by mitochondrial respiration and accounts for more than 90% of the total available energy. For mitochondrial respiration assays, glutamate/malate (for complex I) and succinate (for complex II) were used as substrates. In addition, the mitochondrial oxidative phosphorylation coupling index, known as respiratory control ratio (RCR, state 3/state 4 respiration) and ADP/O index (the coupling between ATP synthesis and oxygen consumption) were also calculated. AntiOxBENs and MitoQ were tested at antioxidant-relevant concentrations, with 10 μM being the highest concentration.\nIn an embodiment, the evaluation of AntiOxBENs effect on mitochondrial respiration was performed as follows: the respiration of isolated RLM was evaluated polarographically with a Clark-type oxygen electrode, connected to a suitable recorder in a 1 mL thermostated water-jacketed chamber with magnetic stirring, at 37° C. […] Increasing concentrations of AntiOxBENs (2.5-10 μM) were added to the reaction medium containing respiratory substrates glutamate/malate (10 mM and 5 mM respectively) or succinate (5 mM) and RLM (1 mg) and allowed to incubate for a 5 min period prior to the assay. State 2 was considered as the respiration during the 5 min incubation time with AntiOxBENs. […] State 4 was determined after ADP phosphorylation finished. Subsequent addition of oligomycin (2 μg/ml) inhibited ATPsynthase and originated the oligomycin-inhibition respiration state. Finally, 1 μM FCCP was added to induce uncoupled respiration. […] Data are means are means±SEM of seven independent experiments."}, "[4]": {"system": "rat liver mitochondria (RLM) membranes", "test": "RLM lipid peroxidation, TBARS assay (FeSO4/H2O2/ascorbate)", "conditions": "5 μM, FeSO4/H2O2/ascorbate"}},
  "data": [
    {"smiles": "O=C(NCCCCCC[P+](c1ccccc1)(c1ccccc1)c1ccccc1)c1ccc(O)c(O)c1.[Br-]", "note": "[AntiOxBEN1, 6-(3,4-dihydroxybenzamido)hexyltriphenylphosphonium bromide]", "values": [
      {"measurement": "IC50", "setting": "[1]", "value": 4.3, "unit": "µM"},
      {"measurement": "Ep (redox potential)", "setting": "[2]", "value": 0.224, "unit": "V"},
      {"measurement": "ADP/O", "setting": "[3]; Glutamate/Malate, 2.5 μM", "value": "2.5 ± 0.2"},
      {"measurement": "RCR", "setting": "[3]; Glutamate/Malate, 2.5 μM", "value": "4.9 ± 0.6"},
      {"measurement": "ADP/O", "setting": "[3]; Glutamate/Malate, 5 μM", "value": "2.8 ± 0.4"},
      {"measurement": "RCR", "setting": "[3]; Glutamate/Malate, 5 μM", "value": "4.4 ± 0.6"},
      {"measurement": "ADP/O", "setting": "[3]; Glutamate/Malate, 10 μM", "value": "2.1 ± 0.1"},
      {"measurement": "RCR", "setting": "[3]; Glutamate/Malate, 10 μM", "value": "2.6 ± 0.1"},
      {"measurement": "ADP/O", "setting": "[3]; Succinate, 2.5 μM", "value": "1.7 ± 0.03"},
      {"measurement": "RCR", "setting": "[3]; Succinate, 2.5 μM", "value": "4.7 ± 0.3"},
      {"measurement": "ADP/O", "setting": "[3]; Succinate, 5 μM", "value": "1.6 ± 0.1"},
      {"measurement": "RCR", "setting": "[3]; Succinate, 5 μM", "value": "3.0 ± 0.3"},
      {"measurement": "ADP/O", "setting": "[3]; Succinate, 10 μM", "value": "1.5 ± 0.1"},
      {"measurement": "RCR", "setting": "[3]; Succinate, 10 μM", "value": "2.8 ± 0.3"},
      {"measurement": "prevention of TBARS formation / mitochondria lipid peroxidation", "setting": "[4]", "value": "not effective"}
    ]},
    {"smiles": "O=C(NCCCCCC[P+](c1ccccc1)(c1ccccc1)c1ccccc1)c1cc(O)c(O)c(O)c1.[Br-]", "note": "[AntiOxBEN2, 6-(3,4,5-trihydroxybenzamido)hexyltriphenylphosphonium bromide]", "values": [
      {"measurement": "IC50", "setting": "[1]", "value": 3, "unit": "µM"},
      {"measurement": "Ep (redox potential)", "setting": "[2]; listed as MitoBEN2", "value": 0.168, "unit": "V"},
      {"measurement": "ADP/O", "setting": "[3]; Glutamate/Malate, 2.5 μM", "value": "2.3 ± 0.3"},
      {"measurement": "RCR", "setting": "[3]; Glutamate/Malate, 2.5 μM", "value": "4.3 ± 0.6"},
      {"measurement": "ADP/O", "setting": "[3]; Glutamate/Malate, 5 μM", "value": "2.3 ± 0.2"},
      {"measurement": "RCR", "setting": "[3]; Glutamate/Malate, 5 μM", "value": "3.9 ± 0.5"},
      {"measurement": "ADP/O", "setting": "[3]; Glutamate/Malate, 10 μM", "value": "2.1 ± 0.2"},
      {"measurement": "RCR", "setting": "[3]; Glutamate/Malate, 10 μM", "value": "2.9 ± 0.3"},
      {"measurement": "ADP/O", "setting": "[3]; Succinate, 2.5 μM", "value": "1.7 ± 0.1"},
      {"measurement": "RCR", "setting": "[3]; Succinate, 2.5 μM", "value": "5.2 ± 0.9"},
      {"measurement": "ADP/O", "setting": "[3]; Succinate, 5 μM", "value": "1.7 ± 0.1"},
      {"measurement": "RCR", "setting": "[3]; Succinate, 5 μM", "value": "3.8 ± 0.4"},
      {"measurement": "ADP/O", "setting": "[3]; Succinate, 10 μM", "value": "1.6 ± 0.04"},
      {"measurement": "RCR", "setting": "[3]; Succinate, 10 μM", "value": "3.5 ± 0.3"},
      {"measurement": "prevention of TBARS formation / mitochondria lipid peroxidation", "setting": "[4]", "value": "most effective"}
    ]},
    {"smiles": "O=C(CCCCC[P+](c1ccccc1)(c1ccccc1)c1ccccc1)NCCCCCCNC(=O)c1cc(O)c(O)c(O)c1.[Br-]", "note": "[AntiOxBEN3, [5-(6-(3,4,5-trihydroxybenzamido)hexylamino)carbonylpentyl]triphenylphosphonium bromide]", "values": [
      {"measurement": "IC50", "setting": "[1]", "value": 3.4, "unit": "µM"},
      {"measurement": "Ep (redox potential)", "setting": "[2]; listed as MitoBEN3", "value": 0.164, "unit": "V"},
      {"measurement": "ADP/O", "setting": "[3]; Glutamate/Malate, 2.5 μM", "value": "2.3 ± 0.2"},
      {"measurement": "RCR", "setting": "[3]; Glutamate/Malate, 2.5 μM", "value": "3.9 ± 0.5"},
      {"measurement": "ADP/O", "setting": "[3]; Glutamate/Malate, 5 μM", "value": "2.3 ± 0.1"},
      {"measurement": "RCR", "setting": "[3]; Glutamate/Malate, 5 μM", "value": "3.9 ± 0.6"},
      {"measurement": "ADP/O", "setting": "[3]; Glutamate/Malate, 10 μM", "value": "2.0 ± 0.2"},
      {"measurement": "RCR", "setting": "[3]; Glutamate/Malate, 10 μM", "value": "3.07 ± 0.6"},
      {"measurement": "ADP/O", "setting": "[3]; Succinate, 2.5 μM", "value": "1.6 ± 0.1"},
      {"measurement": "RCR", "setting": "[3]; Succinate, 2.5 μM", "value": "4.1 ± 0.5"},
      {"measurement": "ADP/O", "setting": "[3]; Succinate, 5 μM", "value": "1.6 ± 0.1"},
      {"measurement": "RCR", "setting": "[3]; Succinate, 5 μM", "value": "4.3 ± 0.7"},
      {"measurement": "ADP/O", "setting": "[3]; Succinate, 10 μM", "value": "1.7 ± 0.1"},
      {"measurement": "RCR", "setting": "[3]; Succinate, 10 μM", "value": "3.9 ± 0.4"},
      {"measurement": "prevention of TBARS formation / mitochondria lipid peroxidation", "setting": "[4]", "value": "most effective"}
    ]}
  ]
}
